One block for each compound: values may come before it.
How the values were obtained:
[1] = tested on: urinary bladder cancer cells (T24); experiment: Combination with doxorubicin, survival rate of tumor cells (WST-8); type: cell-based, human; conditions: T24, 10 μM doxorubicin alone
Description: (§1) For cell culture, RPMI1640 medium (manufactured by Gibco Co., Ltd.) and DMEM medium (manufactured by Gibco Co., Ltd.) were mixed in a ratio of 1:1 and supplied 7% FBS (fetal bovine serum, manufactured by Nichirei Biosciences Inc.) and antibiotic mixture (mixture of penicillin, streptomycin, amphotericin B Mix, 100-fold concentrated solution (Nakarai Co.). Trypsinized cells were diluted to 1×10^5 cells/ml and seeded at 400 μl/well in 48-well dishes. Immediately after seeding, the test compound (dissolved in DMSO) was added to a final concentration of 0.5%, cultured for 24 hours in a CO2 incubator under an atmosphere of 5% of CO2, at a temperature of 36° C. to 37° C. After culturing, WST-8 assay was performed. An activity value of DMSO control was set to 100%, and the activities of each cell to which the test compound was added were investigated.
(§2) To 400 μl of cells culture, 18 μl of Cell Count Reagent SF (manufactured by Nacalai Inc.) was added. After being cultured for 2 to 3 hours (in a case where activity is low, cultured for 19 hours) under an atmosphere of 5% of CO2, at a temperature of 36° C. to 37° C., the broth was stirred, and the amount of formazan produced in the broth was calculated from absorbance at a wavelength of 450 nm. Using a measured value at a wavelength of 600 nm as a control, OD450-OD600 was set to an activity value. […]

[2] = tested on: gastric cancer cells (MKN45); experiment: WST-8 cell proliferation assay, gastric cancer cells; type: cell-based, human; conditions: MKN45, cultured for 24 hours, WST-8 assay, DMSO control = 100%
Description: as §1
(§3) To 400 μl of cells culture, 18 μl of Cell Count Reagent SF (manufactured by Nacalai Inc.) was added. After being cultured for 2 to 3 hours (in a case where activity is low, cultured for 19 hours) under an atmosphere of 5% of CO2, at a temperature of 36° C. to 37° C., the broth was stirred, and the amount of formazan produced in the broth was calculated from absorbance at a wavelength of 450 nm. Using a measured value at a wavelength of 600 nm as a control, OD450-OD600 was set to an activity value.

[3] = tested on: normal embryonic kidney-derived cells (HEK293F); experiment: WST-8 cell proliferation assay, normal embryonic kidney-derived cells; type: cell-based; conditions: cultured for 24 hours, WST-8 assay, DMSO control = 100%
Description: as §1, §3

[4] = tested on: acute lymphoblastic leukemia T-cells (Molt-4); experiment: WST-8 cell proliferation assay, acute lymphoblastic leukemia T-cells; type: cell-based, human; conditions: Molt-4, cultured for 24 hours, WST-8 assay, DMSO control = 100%
Description: as §1, §2

[5] = tested on: cervical cancer cells (HeLa); experiment: Combination with cisplatin, survival rate of tumor cells (WST-8); type: cell-based, human
Description: as §1, with “After culturing, WST-8 assay was performed. An activity value of DMSO control was set to 100%, and the activities of each cell to which the test compound was added were investigated.” left out
as §2
The survival rate of the tumor cells was calculated, in the same manner as in Example 4 except that 15 μM of the glycoside compound and 333 μM of cisplatin were added to the medium immediately after seeding the tumor cells. […]

[6] = tested on: renal cancer cells (ACHN); experiment: Combination with paclitaxel, survival rate of tumor cells (WST-8); type: cell-based, human; conditions: 29 nM paclitaxel alone
Description: as §1, with “After culturing, WST-8 assay was performed. An activity value of DMSO control was set to 100%, and the activities of each cell to which the test compound was added were investigated.” left out
as §2
A survival rate of the tumor cells was calculated, in the same manner as in Example 4 except that 5 μM of the glycoside compound and 29 nM of paclitaxel were added to the medium immediately after seeding the tumor cells.

SMILES: COc1cccc2c1C(=O)c1c(O)c3c(c(O)c1C2=O)C[C@@](O)(C(=O)CO)C[C@@H]3O[C@H]1C[C@H](N)[C@H](O)[C@H](C)O1 [doxorubicin]
survival rate of the tumor cells [1]: 57.3%

IC50 [2]: 16 µM
IC50 [4]: 8.1 µM
SMILES: CCCCCCCC(=O)O[C@@H]1[C@H](OC[C@@H](O)[C@@H](O)[C@H](O)[C@H](O)[C@@H](O)CO)O[C@H](COC(=O)CCCCC)[C@@H](OC(=O)CCCCC)[C@@H]1OC(=O)CCCCC [Preparation Example 24, D-glycero-D-galactoheptitol-1-yl 3,4,6-tri-O-hexanoyl-2-O-octanoyl-β-D-mannopyranoside]
IC50 [3]: 21.8 µM

SMILES: N.N.[Cl][Pt][Cl] [cisplatin]
Survival Rate after 19 Hours ([5]; 42 μM cisplatin alone, WST-8 incubated for 19 hours): 106.8%
Survival Rate after 2 Hours ([5]; 333 μM cisplatin alone, WST-8 incubated for 2 hours): 58.8%

SMILES: CC(=O)O[C@H]1C(=O)[C@@]2(C)[C@H]([C@H](OC(=O)c3ccccc3)[C@]3(O)C[C@H](OC(=O)[C@H](O)[C@@H](NC(=O)c4ccccc4)c4ccccc4)C(C)=C1C3(C)C)[C@]1(OC(C)=O)CO[C@@H]1C[C@@H]2O [paclitaxel]
survival rate of the tumor cells [6]: 63.8%

From US9828406B2, “Antitumor agent” (KINKI UNIVERSITY, priority 2011, dated 2017)
